Entries after “also recorded” stand apart in the source; their conditions may differ.
Test system: not listed separately
Test: Acute oral toxicity test in rats
Settings: rat, in vivo, mature rats 200-250 g, dissolved in ethylacetate
Description: The acute toxicity tests on rats were performed using the compound prepared by the procedure of the Example 1. Mature rats weighing 200-250 g were orally given the compound of the Example 1 dissolved in ethylacetate in parallel with its gradually increasing concentration. Then, LD50 was calculated by number of killed animals.
Compound `CCOC(=O)C(O)(CO)CCCCCCOCc1ccccc1` (stereo not drawn) [Example 1, Ethyl-2,3-dihydroxy-2-(6-benzoxy)hexylpropionate] has an LD50 of 482 mg/kg.

Test system: diabetes-induced Sprague-Dawley rats
Test: Blood glucose lowering effect in streptozotocin diabetes-induced rats, oral
Assay type: in vivo
Settings: Rattus norvegicus; STZ (45 mg/kg) diabetic male Sprague-Dawley rats; 50 mg/kg oral in 30% ethanol; smallest blood glucose of 90, 120 and 180 min; read-out: Blood glucose lowering rate
Description: Two groups of male diabetes-induced Sprague-Dawley rats (each of 4-5 rats weighing about 250 g per group) were used for this experiment. 45 mg/kg of streptozotocin (STZ) dissolved in 0.1M citrate buffer (pH 4.5, 0-4° C.) was injected to the tail vein of fasted rats for 1 day. After elapse of 7 days, their blood glucose concentration were measured and animals having the blood serum concentration of more than 350 mg/dl were used as diabetes-induced rats for this experiment. The rats were intravenously administered at a daily dose of 1 ml/kg, while the normal control group received equal volume of 0.1M citrate buffer.
7 days after being treated with streptozotocin, diabetes-induced rats were orally administered at a dose of 50 mg/kg of the compounds prepared by the procedures of Examples 1-13. Then, at time intervals of 90 mins, 120 mins and 180 mins, their blood glucose concentrations were measured and the smallest values were taken. The compounds of Example 1-13 were dissolved in 30% ethanol until its final concentration became 2 ml/kg, while the control group was orally received equal volume of 30% ethanol.
Significant difference between two groups was determined by ANOVA test, together with a post hoc test using Newman-Keuls test.
`CCOC(=O)C(O)(CO)CCCCCCOCc1ccccc1` (stereo not drawn) [Example 1, Ethyl-2,3-dihydroxy-2-(6-benzoxy)hexylpropionate] showed an inhibition in vivo at 50 mg/kg of 38.5%.
`CCOC(=O)C(O)(CO)CCCCCCOCc1ccc(OC)cc1` (stereo not drawn) [Example 2, Ethyl-2,3-dihydroxy-2-[6-(4-methoxybenzoxy)hexyl]propionate] gave an inhibition in vivo at 50 mg/kg of 10%.
`CCOC(=O)C(O)(CO)CCCCCCOc1ccc(Cl)cc1` (stereo not drawn) [Example 3, Ethyl-2,3-dihydroxy-2-[6-(4-chlorophenoxy)hexyl]propionate] gave an inhibition in vivo at 50 mg/kg of 23%.
For `CCOC(=O)C(O)(CO)CCCCCCOCc1ccc(C)o1` (stereo not drawn) [Example 5, Ethyl-2,3-dihydroxy-2-[6-(5-methyl-2-furanmethoxy)hexyl]propionate], the inhibition in vivo at 50 mg/kg was 22%.
For `CCOC(=O)C(O)(CO)CCCCCCOCCc1cccs1` (stereo not drawn) [Example 6, Ethyl-2,3-dihydroxy-2-[6-(2-thiophenethoxy)hexyl]propionate], the inhibition in vivo at 50 mg/kg was 1.2%.
`CCOC(=O)C(O)(CO)CCCCCCOCc1ccc(Cl)s1` (stereo not drawn) [Example 7, Ethyl-2,3-dihydroxy-2-[6-(5-chloro-2-thiophenmethoxy)hexyl]propionate] showed an inhibition in vivo at 50 mg/kg of 19.2%.
In the case of `CCOC(=O)C(O)(CO)CCCCCCOCc1sccc1Cl` (stereo not drawn) [Example 8, Ethyl-2,3-dihydroxy-2-[6-(3-chloro-2-thiophenmethoxy)hexyl]propionate], the inhibition in vivo at 50 mg/kg is reported as 26%.
`CCOC(=O)C(O)(CBr)CCCCCCOc1ccc(Cl)cc1` (stereo not drawn) [Example 9] gave an inhibition in vivo at 50 mg/kg of 22%.
In the case of `CCOC(=O)C(O)(CCCCCCOCc1ccccc1)COS(=O)(=O)c1ccc(C)cc1` (stereo not drawn) [Example 10, Ethyl 2-hydroxy-3-(4-methylbenzenesulfoxy)-2-[6-benzoxyhexyl]propionate], the inhibition in vivo at 50 mg/kg is reported as 34.1%.
In the case of `CCOC(=O)C(O)(CBr)CCCCCCOCCc1cccs1` (stereo not drawn) [Example 11, Ethyl 2-hydroxy-3-bromo-2-[6-(2-thiophenethoxy)hexyl]propionate], the inhibition in vivo at 50 mg/kg is reported as 13%.
In the case of `CCOC(=O)C(O)(CBr)CCCCCCOCc1ccc(Cl)s1` (stereo not drawn) [Example 12, Ethyl 2-hydroxy-3-bromo-2-[6-(5-chlorothiophenemethoxy)hexyl]propionate], the inhibition in vivo at 50 mg/kg is reported as 26.4%.
Compound `CCOC(=O)C(O)(CBr)CCCCCCOCc1sccc1Cl` (stereo not drawn) [Example 13, Ethyl 2-hydroxy-3-bromo-2-[6-(3-chlorothiophenemethoxy)hexyl]propionate] has an inhibition in vivo at 50 mg/kg of 19.3%.

Same assay, conditions: STZ (45 mg/kg) diabetic male Sprague-Dawley rats; 50 mg/kg oral in 30% ethanol; smallest blood glucose of 90, 120 and 180 min
In the case of `CCOC(=O)C(O)(CO)CCCCCCn1nc(C)cc1C` (stereo not drawn) [Example 4, Ethyl-2,3-dihydroxy-2-[6-(3,5-dimethylpyrazol)hexyl]propionate], the “Blood glucose lowering rate” value is reported as 19.8%.

Test system: not given
Test: not given
Settings: phase II clinical trials, discontinued; cited from earlier work
For `CCOC(=O)[C@@]1(CCCCCCOc2ccc(Cl)cc2)CO1` [etomoxir], the “side effects associated with prolonged administration” value is given as “enlarged heart; also recorded: toxicity in the liver”.

Source: US6030993A, “2-hydroxypropionic acid derivative and its manufacturing method” (Sang Sup JEW, priority 1996, dated 2000)
